Each structure is given as a SMILES string. Where a name gives a salt, the structure may show the parent alone.

The values that follow come from PMC11822212, “High-throughput screening identifies Aurora kinase B as a critical therapeutic target for Merkel cell carcinoma” (Nature Communications, 2025).

One experiment relates to NIH-3T3 cells. Description: qHTS cell viability (CellTiter-Glo, 72 h; primary screen), control cell line. Format: cell-based, mouse. On the technique in general: qHTS replaces the single test concentration by a dilution series.
For another experiment, the system named is MKL-1 cells (VP-MCC). Description: qHTS cell viability (CellTiter-Glo, 72 h; primary and follow-up small molecule screen). The format is cell-based, human.
Experiment [1] has as its system VP-MCC cell lines (WAGA, MKL-1, MKL-2). Description: qHTS cell viability, VP-MCC cell lines as a group (mean AUC, VP.MCC.avg). Format: cell-based, human. Particulars: for VP-MCC_Avg_AUC: mean AUC of VP-MCC cell lines.
A further experiment has as its system MCC13 cells (VN-MCC). Description: qHTS cell viability (CellTiter-Glo, 72 h; primary and follow-up small molecule screen). Format: cell-based, human.
In another experiment the test system is UISO cells (VN-MCC). The experiment is described as above. Format: cell-based, human.
The subject of another experiment is HEK293T cells. Kind of experiment: qHTS cell viability (CellTiter-Glo, 72 h; primary screen), control cell line. The format is cell-based, human.
A further experiment concerns WAGA cells (VP-MCC). Description: qHTS cell viability (CellTiter-Glo, 72 h; primary and follow-up small molecule screen). The format is cell-based, human.
Experiment [2] relates to VN-MCC cell lines (MCC13, MCC26, UISO). Kind of experiment: qHTS cell viability, VN-MCC cell lines as a group (mean AUC, VN.MCC.avg). Format: cell-based, human. To be noted: for VN-MCC_Avg_AUC: mean AUC of VN-MCC cell lines.
The test system of another experiment is HACAT cells. Kind of experiment: qHTS cell viability (CellTiter-Glo, 72 h; primary screen), control cell line. The format is cell-based, human.
Another experiment relates to MCC26 cells (VN-MCC). Kind of experiment: qHTS cell viability (CellTiter-Glo, 72 h; primary and follow-up small molecule screen). Format: cell-based, human.
In experiment [3] the test system is MCC cell lines (WAGA, MKL-1, MKL-2, MCC13, MCC26, UISO). Description: qHTS cell viability, all six MCC cell lines as a group (mean AUC, MCC.avg). Particulars: mean AUC of six MCC cell lines. The format is cell-based, human.
The next experiment has as its system MKL-2 cells (VP-MCC). Kind of experiment: qHTS cell viability (CellTiter-Glo, 72 h; primary and follow-up small molecule screen). Format: cell-based, human.
Experiment [4] has as its system six MCC cell lines and four control cell lines. Kind of experiment: qHTS cell viability, all 10 cell lines screened. The format is cell-based.
Experiment [5] has as its system control cell lines (HACAT, HEK293T, CRL-7250, NIH-3T3). Description: qHTS cell viability, control cell lines as a group (mean AUC, Control.avg). Format: cell-based. Particulars: mean AUC of control cell lines.
For a further experiment, the system named is CRL-7250 cells. Kind of experiment: qHTS cell viability (CellTiter-Glo, 72 h; primary screen), control cell line. Format: cell-based.
The mark [6] stands for this setting: NPC library, qHTS dose-response AUC, NIH3T3 control.
The mark [7] stands for this setting: NPC library, qHTS dose-response AUC, MKL1.
[8] abbreviates: NPC library, therapeutic window: Control avg AUC minus VP-MCC avg AUC.
The mark [9] stands for this setting: NPC library, qHTS dose-response AUC, MCC13.
Setting [10] is: NPC library, qHTS dose-response AUC, UISO.
Where [11] appears, read: NPC library, qHTS dose-response AUC, HEK293T control.
The mark [12] stands for this setting: NPC library, qHTS dose-response AUC, WAGA.
[13] abbreviates: NPC library, therapeutic window: Control avg AUC minus VN-MCC avg AUC.
Where [14] appears, read: NPC library, qHTS dose-response AUC, HACAT control.
Setting [15] is: NPC library, qHTS dose-response AUC, MCC26.
Where [16] appears, read: NPC library, qHTS dose-response AUC, MKL2.
[17] abbreviates: NPC library, therapeutic window: Control avg AUC minus MCC avg AUC.
Setting [18] is: NPC library, qHTS dose-response AUC, CRL7250 control.
The mark [19] stands for this setting: MIPE library, 11-point DRC, control cell line, sheet S2E.
[20] abbreviates: MIPE library, 11-point DRC, sheet S2E.

In turn, `CCCC(C(=O)OCCN(CC)CC)(c1ccccc1)c1ccccc1` [Proadifen hydrochloride] showed an NIH3T3_AUC with NIH-3T3 cells (setting [6]) of 451.129. This compound gave an MKL1_AUC in the experiment on MKL-1 cells (VP-MCC) (setting [7]) of 383.197. This compound also yielded a VP-MCC_Avg_AUC in [1] (NPC library) of 400.877. Besides, the Control-VP-MCC in experiment [1] (setting [8]) amounted to 59.0165. In the experiment on MCC13 cells (VN-MCC) (setting [9]), this compound had an MCC13_AUC of 446.167. In addition, the UISO_AUC in the experiment on UISO cells (VN-MCC) (setting [10]) amounted to 416.723. Besides, the HEK293T_AUC in the experiment with HEK293T cells (setting [11]) worked out at 426.534. Further, the WAGA_AUC in the experiment with WAGA cells (VP-MCC) (setting [12]) is 421.101. The VN-MCC_Avg_AUC in [2] (NPC library) is on record as 425.473. Further, in [2] (setting [13]), the Control-VN-MCC is on record as 34.42. The compound further registered an HACAT_AUC in the experiment on HACAT cells (setting [14]) of 477.751. Besides, in the experiment on MCC26 cells (VN-MCC) (setting [15]), the MCC26_AUC stood at 413.531. The same compound yielded an MCC_Avg_AUC in [3] (NPC library) of 413.175. This compound also gave an MKL2_AUC in the experiment on MKL-2 cells (VP-MCC) (setting [16]) of 398.333. Further, the Control-MCC in experiment [4] (setting [17]) is listed as 46.7182. In addition, the Control_Avg_AUC in experiment [5] (NPC library) amounted to 459.893. Also, in the experiment with CRL-7250 cells (setting [18]), the CRL7250_AUC amounted to 484.159.
In turn, `O=C(CCN1CCC(c2ccccc2)C1)c1ccc2c(c1)OCCO2` (stereo not drawn) [Proroxan] registered an NIH3T3_AUC in the experiment with NIH-3T3 cells (setting [6]) of 459.69. In addition, the MKL1_AUC in the experiment with MKL-1 cells (VP-MCC) (setting [7]) stood at 401.495. Also, the “Area under the dose-response curve (AUC) MKL-1 Replicate 1” value with MKL-1 cells (VP-MCC) (follow-up screen, MKL-1, replicate 1) amounted to 420.7. Also, in the experiment on MKL-1 cells (VP-MCC) (follow-up screen, MKL-1, replicate 2), the “Area under the dose-response curve (AUC) MKL-1 Replicate 2” value is on record as 440.6. Further, the “Area under the dose-response curve (AUC) MKL-1 Replicate 3” value in the experiment on MKL-1 cells (VP-MCC) (follow-up screen, MKL-1, replicate 3) is 412.1. Besides, the VP-MCC_Avg_AUC in experiment [1] (NPC library) is 394.094. For the same compound, the Control-VP-MCC in experiment [1] (setting [8]) came to 67.3656. Also, the MCC13_AUC with MCC13 cells (VN-MCC) (setting [9]) is 464.203. Moreover, in the experiment on MCC13 cells (VN-MCC) (follow-up screen, MCC13, replicate 1), the “Area under the dose-response curve (AUC) MCC13 Replicate 1” value came out at 493.7. Further, in the experiment with MCC13 cells (VN-MCC) (follow-up screen, MCC13, replicate 2), the “Area under the dose-response curve (AUC) MCC13 Replicate 2” value came out at 500.7. Further, the “Area under the dose-response curve (AUC) MCC13 Replicate 3” value in the experiment with MCC13 cells (VN-MCC) (follow-up screen, MCC13, replicate 3) is listed as 474.6. In addition, in the experiment on UISO cells (VN-MCC) (setting [10]), the UISO_AUC came out at 463.935. Further, in the experiment on UISO cells (VN-MCC) (follow-up screen, UISO, replicate 1), the “Area under the dose-response curve (AUC) UISO Replicate 1” value came out at 440.8. Moreover, in the experiment on UISO cells (VN-MCC) (follow-up screen, UISO, replicate 2), the “Area under the dose-response curve (AUC) UISO Replicate 2” value turned out to be 468.5. In addition, the “Area under the dose-response curve (AUC) UISO Replicate 3” value in the experiment with UISO cells (VN-MCC) (follow-up screen, UISO, replicate 3) came out at 484.4. For the same compound, the HEK293T_AUC in the experiment with HEK293T cells (setting [11]) was found to be 432.979. For the same compound, the WAGA_AUC with WAGA cells (VP-MCC) (setting [12]) came out at 401.693. Further, in the experiment on WAGA cells (VP-MCC) (follow-up screen, WAGA, replicate 1), the “Area under the dose-response curve (AUC) WAGA Replicate 1” value stood at 471.3. Also, the “Area under the dose-response curve (AUC) WAGA Replicate 2” value in the experiment on WAGA cells (VP-MCC) (follow-up screen, WAGA, replicate 2) was determined as 460.1. Further, in the experiment on WAGA cells (VP-MCC) (follow-up screen, WAGA, replicate 3), the “Area under the dose-response curve (AUC) WAGA Replicate 3” value turned out to be 475.6. This compound also registered a VN-MCC_Avg_AUC in experiment [2] (NPC library) of 486.553. Also, the Control-VN-MCC in experiment [2] (setting [13]) is on record as -25.0934. The compound also had an HACAT_AUC in the experiment with HACAT cells (setting [14]) of 483.91. In the experiment with MCC26 cells (VN-MCC) (setting [15]), this compound displayed an MCC26_AUC of 531.522. For the same compound, in the experiment with MCC26 cells (VN-MCC) (follow-up screen, MCC26, replicate 1), the “Area under the dose-response curve (AUC) MCC26 Replicate 1” value was 461.4. Besides, in the experiment on MCC26 cells (VN-MCC) (follow-up screen, MCC26, replicate 2), the “Area under the dose-response curve (AUC) MCC26 Replicate 2” value is given as 445.0. In addition, the “Area under the dose-response curve (AUC) MCC26 Replicate 3” value in the experiment on MCC26 cells (VN-MCC) (follow-up screen, MCC26, replicate 3) was found to be 478.9. Moreover, the MCC_Avg_AUC in experiment [3] (NPC library) is reported as 440.324. The MKL2_AUC in the experiment on MKL-2 cells (VP-MCC) (setting [16]) turned out to be 379.094. In the experiment with MKL-2 cells (VP-MCC) (follow-up screen, MKL-2, replicate 1), the “Area under the dose-response curve (AUC) MKL-2 Replicate 1” value is 423.0. Also, the “Area under the dose-response curve (AUC) MKL-2 Replicate 2” value in the experiment with MKL-2 cells (VP-MCC) (follow-up screen, MKL-2, replicate 2) is reported as 412.3. Besides, the “Area under the dose-response curve (AUC) MKL-2 Replicate 3” value in the experiment on MKL-2 cells (VP-MCC) (follow-up screen, MKL-2, replicate 3) is recorded as 429.1. Also, in experiment [4] (setting [17]), the Control-MCC was 21.1361. The Control_Avg_AUC in experiment [5] (NPC library) amounted to 461.46. In the experiment with CRL-7250 cells (setting [18]), this compound returned a CRL7250_AUC of 469.26.
`O=C(CCCCCCC(=O)Nc1cccnc1)NO` [Pyroxamide] had an NIH3T3_AUC in the experiment with NIH-3T3 cells (setting [19]) of 462.753. The compound also yielded an MKL1_AUC in the experiment on MKL-1 cells (VP-MCC) (setting [20]) of 400.642. The same compound gave a Control-VP-MCC in experiment [1] (MIPE library, Control AUC minus VP-MCC AUC (therapeutic window), sheet S2E) of 81.0267. This compound registered a VP-MCC_Avg_AUC in experiment [1] (MIPE library, sheet S2E) of 372.833. The MCC13_AUC in the experiment on MCC13 cells (VN-MCC) (setting [20]) is recorded as 454.868. The compound further gave a UISO_AUC in the experiment on UISO cells (VN-MCC) (setting [20]) of 440.831. Also, the HEK293T_AUC with HEK293T cells (setting [19]) is on record as 439.975. In addition, the WAGA_AUC in the experiment on WAGA cells (VP-MCC) (setting [20]) is 346.535. The Control-VN-MCC in [2] (MIPE library, Control AUC minus VN-MCC AUC (therapeutic window), sheet S2E) was -0.2641. In addition, in experiment [2] (MIPE library, sheet S2E), the VN-MCC_Avg_AUC was found to be 454.124. In the experiment with HACAT cells (setting [19]), this compound yielded an HACAT_AUC of 452.893. The MCC26_AUC in the experiment on MCC26 cells (VN-MCC) (setting [20]) amounted to 466.672. In experiment [3] (MIPE library, sheet S2E), the MCC_Avg_AUC is on record as 413.478. In the experiment with MKL-2 cells (VP-MCC) (setting [20]), this compound registered an MKL2_AUC of 371.322. The Control-MCC in [4] (MIPE library, Control AUC minus MCC AUC (therapeutic window), sheet S2E) stood at 40.3813. Moreover, the Control_Avg_AUC in experiment [5] (MIPE library, sheet S2E) is 453.86. The compound further came in with a CRL7250_AUC in the experiment on CRL-7250 cells (setting [19]) of 459.817.
